Assay results published in PMC6010093, “α-Glucosidase inhibitory activity and cytotoxic effects of some cyclic urea and carbamate derivatives” (Journal of Enzyme Inhibition and Medicinal Chemistry, 2017).
Entries after “also recorded” stand apart in the source; their conditions may differ.

Assays:
[1] = system: HeLa cells; assay: Morphological evaluation of cell death (acridine orange/ethidium bromide staining, fluorescence microscope); type: cell-based, human
Procedure: After 24 h of seeding 80 000 HeLa cells per well, they were treated with compound dilutions of IC50 and 2 × IC50 in control only nutrient medium was added. After another 24 h of incubation cells were stained with acridine orange AO and ethidium bromide EB (3 μg/mLAO +10 μg/mL EB in PBS), then visualized under a fluorescence microscope (Carl Zeiss, Oberkochen, Germany) PALM MicroBeam with Axio Observer.Z1 using AxioCam MRm (filters Alexa 488 and 568), as described in literature.
Morphological changes were observed after cells were stained with acridine orange and ethidium-bromide. Acridine orange can penetrate into the living cells and emits green fluorescence, while ethidium-bromide enters the cells after cell membrane damage and emits red fluorescence. […] Observed control cells are with unchanged morphology, stained green.

[2] = system: MDA-MB-453 human breast cancer cell line; assay: MTT cytotoxicity assay, MDA-MB-453; type: cell-based; conditions: 72 h exposure, mean ± standard deviation
[3] = system: HeLa, cervix adenocarcinoma cell line; assay: MTT cytotoxicity assay, HeLa; type: cell-based; conditions: Homo sapiens, 72 h exposure, mean ± standard deviation
[4] = system: A549, non-small cell lung carcinoma cell line; assay: MTT cytotoxicity assay, A549; type: cell-based; conditions: Homo sapiens, 72 h exposure, mean ± standard deviation
[5] = 24 h treatment with 2 × IC50 concentration of compound
[6] = 24 h treatment with IC50 dilution of compound

CC(C)(C)OC(=O)N1CCC(NC(=O)OCc2ccccc2)CC1 [Compound 8] was tested, and the “Morphological changes of HeLa cells (cell death type)” value (“Morphological changes of HeLa cells” for short) [1, 5] was “necrotic changes”, the “Morphological changes of HeLa cells” value [1, 6] was “late apoptotic signs; also recorded: apoptosis occurred” and the IC50 [2] was 112 ± 4.91 µM. For the same molecule, the IC50 [3] was 158 ± 6.04 µM and the IC50 [4] was 155.8 ± 0.7 µM.
In the case of COC(=O)Nc1cc(OC)c(OC)c(OC)c1 [Compound 11], the “Morphological changes of HeLa cells” value [1, 5] is reported as “necrotic changes”, the “Morphological changes of HeLa cells” value [1, 6] is reported as “late apoptotic signs; also recorded: apoptosis occurred” and the IC50 [2] is reported as 164 ± 3.93 µM. The IC50 [3] was 194.4 ± 1.44 µM and the IC50 [4] was 200 ± 2.37 µM.
With COc1cc(NC(=O)OCc2ccccc2)cc(OC)c1OC [Compound 12, benzyl (3,4,5-trimethoxyphenyl)carbamate] the “Morphological changes of HeLa cells” value [1, 5] was “necrotic changes”, the “Morphological changes of HeLa cells” value [1, 6] was “late apoptotic signs; also recorded: apoptosis occurred” and the IC50 [2] was 108 ± 4.95 µM. It also gave an IC50 [3] of 139 ± 8.28 µM and an IC50 [4] of 180 ± 2.57 µM.
